Measured values taken from PubChem BioAssay AID248 (DTP/NCI, 2004).
Several values for one entry are separate records, joined by “and”; a condition that tells them apart may be missing. Identical values can stand only once. Inconclusive results and toxic doses are left out. No stated cut-off is given here; in the data, active means T/C of 150% or more; inactive means T/C below 125%.

Tested on: L1210 leukemia ip in BDF1 mice, survival T/C
Test: NCI In Vivo Anticancer Drug Screen. Data for tumor model L1210 Leukemia (intraperitoneal) in B6D2F1 (BDF1) mice
Conditions: endpoint: mean survival time, higher = longer survival
Outline: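 Value reflects the ratio of survival in compound-treated mice to survival in vehicle-treated controls, with both groups carrying the same transplanted tumor.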

[1] = dose: 25.0 mg/kg/injection, schedule: Q04DX003 (ip), vehicle: Klucel (hydroxypropylcellulose) (HPC)
[2] = dose: 50.0 mg/kg/injection, schedule: Q04DX003 (ip), vehicle: Klucel (hydroxypropylcellulose) (HPC)
[3] = dose: 100.0 mg/kg/injection, schedule: Q04DX003 (ip), vehicle: saline
[4] = dose: 200.0 mg/kg/injection, schedule: Q04DX003 (ip), vehicle: saline
[5] = dose: 100.0 mg/kg/injection, schedule: Q01DX009 (ip), vehicle: saline with Tween-80
[6] = dose: 100.0 mg/kg/injection, schedule: Q04DX003 (ip), vehicle: saline with Tween-80
[7] = dose: 200.0 mg/kg/injection, schedule: Q04DX003 (ip), vehicle: saline with Tween-80
[8] = dose: 400.0 mg/kg/injection, schedule: Q01DX009 (ip), vehicle: saline with Tween-80
[9] = dose: 400.0 mg/kg/injection, schedule: Q04DX003 (ip), vehicle: saline with Tween-80
[10] = dose: 12.5 mg/kg/injection, schedule: Q01DX009 (ip), vehicle: saline
[11] = dose: 25.0 mg/kg/injection, schedule: Q01DX009 (ip), vehicle: saline
[12] = dose: 50.0 mg/kg/injection, schedule: Q04DX003 (ip), vehicle: saline
[13] = dose: 100.0 mg/kg/injection, schedule: Q04DX002 (ip), vehicle: saline with Tween-80
[14] = dose: 200.0 mg/kg/injection, schedule: Q04DX002 (ip), vehicle: saline with Tween-80
[15] = dose: 400.0 mg/kg/injection, schedule: Q04DX002 (ip), vehicle: saline with Tween-80
[16] = dose: 50.0 mg/kg/injection, schedule: Q01DX009 (ip), vehicle: saline

Measured: T/C

CN=C(N/N=C/c1ccccc1)N(C)C
inactive: [1] 107 % of control | [2] 100 % of control | dose: 87.5 mg/kg/injection, schedule: Q04DX003 (ip), vehicle: Klucel (hydroxypropylcellulose) (HPC) 98 % of control

CN(C)Cc1ccc(NC(=O)c2ccc(C(=O)Nc3ccc(CN(C)C)cc3)cc2)cc1
inactive: dose: 15.0 mg/kg/injection, schedule: Q01DX Z (ip), vehicle: carboxymethylcellulose (CMC) 103 % of control | dose: 30.0 mg/kg/injection, schedule: Q01DX Z (ip), vehicle: carboxymethylcellulose (CMC) 106 % of control | dose: 60.0 mg/kg/injection, schedule: Q01DX Z (ip), vehicle: carboxymethylcellulose (CMC) 106 % of control | dose: 120.0 mg/kg/injection, schedule: Q01DX Z (ip), vehicle: carboxymethylcellulose (CMC) 117 % of control

O=C(c1ccccc1)c1ccc(O)cc1
inactive: dose: 100.0 mg/kg/injection, schedule: Q01DX009 (ip), vehicle: Klucel (hydroxypropylcellulose) (HPC) 93 % of control | dose: 100.0 mg/kg/injection, schedule: Q04DX003 (ip), vehicle: Klucel (hydroxypropylcellulose) (HPC) 103 % of control | dose: 200.0 mg/kg/injection, schedule: Q01DX009 (ip), vehicle: Klucel (hydroxypropylcellulose) (HPC) 93 % of control | dose: 200.0 mg/kg/injection, schedule: Q04DX003 (ip), vehicle: Klucel (hydroxypropylcellulose) (HPC) 100 % of control | dose: 400.0 mg/kg/injection, schedule: Q01DX009 (ip), vehicle: Klucel (hydroxypropylcellulose) (HPC) 100 % of control | dose: 400.0 mg/kg/injection, schedule: Q04DX003 (ip), vehicle: Klucel (hydroxypropylcellulose) (HPC) 103 % of control

O=C(Nc1c(Br)cc2c(c1Br)Cc1cc(Br)ccc1-2)C(Cl)Cl
inactive: dose: 100.0 mg/kg/injection, schedule: Q01DX001 (ip), vehicle: carboxymethylcellulose (CMC) 98 % of control | dose: 200.0 mg/kg/injection, schedule: Q01DX001 (ip), vehicle: carboxymethylcellulose (CMC) 91 % of control | dose: 400.0 mg/kg/injection, schedule: Q01DX001 (ip), vehicle: carboxymethylcellulose (CMC) 98 % of control

COc1ccc2c(=O)c3ccccc3oc2c1
inactive: [3] 101 % of control | [4] 101 % of control | dose: 400.0 mg/kg/injection, schedule: Q04DX003 (ip), vehicle: saline 103 % of control

O=C(NCCCCOc1ccc([N+](=O)[O-])cc1Cl)c1ccc(S(=O)(=O)F)cc1
inactive: [5] 93 % of control | [6] 92 % of control | dose: 200.0 mg/kg/injection, schedule: Q01DX009 (ip), vehicle: saline with Tween-80 93 % of control | [7] 93 % of control | [8] 100 % of control | [9] 111 % of control

CCC(C)NC1=CC(=O)c2ccccc2C1=O (centres undefined)
inactive: dose: 100.0 mg/kg/injection, schedule: Q01DX001 (ip), vehicle: saline with Tween-80 95 % of control | dose: 200.0 mg/kg/injection, schedule: Q01DX001 (ip), vehicle: saline with Tween-80 94 % of control

COc1ccc2c(c1)N(CCC1CCCCN1C)c1ccccc1S2 (centres undefined)
inactive: dose: 3.12 mg/kg/injection, schedule: Q01DX009 (ip), vehicle: saline 108 % of control and 121 % of control | dose: 6.25 mg/kg/injection, schedule: Q01DX009 (ip), vehicle: saline 105 % of control and 118 % of control | dose: 6.25 mg/kg/injection, schedule: Q04DX003 (ip), vehicle: saline 107 % of control | [10] 111 % of control | dose: 12.5 mg/kg/injection, schedule: Q04DX003 (ip), vehicle: saline 106 % of control | [11] 117 % of control | dose: 25.0 mg/kg/injection, schedule: Q04DX003 (ip), vehicle: saline 117 % of control and 122 % of control | [12] 114 % of control and 117 % of control

CN(CCO)CC(O)Cn1cnc2c1c(=O)n(C)c(=O)n2C (centres undefined) (tested in a mixture with another compound)
inactive: dose: 100.0 mg/kg/injection, schedule: Q01DX001 (ip), vehicle: saline 108 % of control | dose: 200.0 mg/kg/injection, schedule: Q01DX001 (ip), vehicle: saline 112 % of control | dose: 400.0 mg/kg/injection, schedule: Q01DX001 (ip), vehicle: saline 104 % of control

Cc1cc(C)c(CCc2c(C)cc(C)cc2C)c(C)c1
inactive: [7] 104 % of control | [9] 102 % of control

CCOc1ccccc1/C=C1N=C(/C=C/c2ccccc2)OC\1=O
inactive: [13] 92 % of control | [14] 89 % of control | [15] 97 % of control

Cc1cccc(C)c1NC(=S)NNC(=O)c1ccncc1
inactive: [5] 97 % of control | [13] 101 % of control | [14] 96 % of control | [8] 100 % of control | [15] 101 % of control

CC(C)(C)OC(=O)CCSC(C)(C)C
inactive: dose: 100.0 mg/kg/injection, schedule: Q01DX001 (ip), vehicle: Klucel (hydroxypropylcellulose) (HPC) 96 % of control | dose: 200.0 mg/kg/injection, schedule: Q01DX001 (ip), vehicle: Klucel (hydroxypropylcellulose) (HPC) 96 % of control | dose: 400.0 mg/kg/injection, schedule: Q01DX001 (ip), vehicle: Klucel (hydroxypropylcellulose) (HPC) 96 % of control

[Se]c1ccnc([Se])n1
inactive: [6] 89 % of control | [7] 94 % of control

S=C1NC(c2ccccc2)NC(c2ccccc2)S1 (centres undefined)
inactive: dose: 12.0 mg/kg/injection, schedule: Q01DX009 (ip), vehicle: saline 93 % of control | [11] 90 % of control | [16] 90 % of control

N=C(N)SC12CC3CC(CC(C3)C1)C2
inactive: dose: 10.0 mg/kg/injection, schedule: Q04DX002 (ip), vehicle: Klucel (hydroxypropylcellulose) (HPC) 94 % of control | dose: 20.0 mg/kg/injection, schedule: Q04DX002 (ip), vehicle: Klucel (hydroxypropylcellulose) (HPC) 87 % of control | dose: 40.0 mg/kg/injection, schedule: Q04DX002 (ip), vehicle: Klucel (hydroxypropylcellulose) (HPC) 94 % of control

CCCC(=O)OC(OC(=O)CCC)c1cccc(OC(=O)CC)c1
inactive: dose: 222.0 mg/kg/injection, schedule: Q01DX Z (ip), vehicle: methylcellulose (MC) 96 % of control | dose: 333.0 mg/kg/injection, schedule: Q01DX Z (ip), vehicle: methylcellulose (MC) 104 % of control | dose: 500.0 mg/kg/injection, schedule: Q01DX Z (ip), vehicle: methylcellulose (MC) 105 % of control

COC(=O)[C@H]1[C@H]2C[C@@H]3c4[nH]c5cc(OC)ccc5c4CCN3C[C@H]2C[C@@H](OC(=O)/C=C/c2cc(OC)c(OC)c(OC)c2)[C@@H]1OC
inactive: dose: 3.12 mg/kg/injection, schedule: Q01DX009 (ip), vehicle: Klucel (hydroxypropylcellulose) (HPC) 96 % of control | dose: 6.25 mg/kg/injection, schedule: Q01DX009 (ip), vehicle: Klucel (hydroxypropylcellulose) (HPC) 96 % of control | dose: 12.5 mg/kg/injection, schedule: Q01DX009 (ip), vehicle: Klucel (hydroxypropylcellulose) (HPC) 105 % of control | dose: 25.0 mg/kg/injection, schedule: Q01DX009 (ip), vehicle: Klucel (hydroxypropylcellulose) (HPC) 96 % of control | [1] 111 % of control | dose: 50.0 mg/kg/injection, schedule: Q01DX009 (ip), vehicle: Klucel (hydroxypropylcellulose) (HPC) 100 % of control | [2] 103 % of control

COc1nc(=S)n2[nH]cnc2n1
inactive: [10] 89 % of control | [11] 94 % of control | [16] 109 % of control | [12] 102 % of control | [3] 91 % of control | [4] 92 % of control

COc1cc(CCN(C)C)cc(OC)c1OC
inactive: dose: 75.0 mg/kg/injection, schedule: Q01DX001 (ip), vehicle: saline 95 % of control | dose: 150.0 mg/kg/injection, schedule: Q01DX001 (ip), vehicle: saline 101 % of control | dose: 300.0 mg/kg/injection, schedule: Q01DX001 (ip), vehicle: saline 102 % of control

COC(=O)CCC(=O)c1cccc2ccccc12
inactive: dose: 100.0 mg/kg/injection, schedule: Q04DX003 (ip), vehicle: acetone 91 % of control | dose: 200.0 mg/kg/injection, schedule: Q04DX003 (ip), vehicle: acetone 96 % of control | dose: 400.0 mg/kg/injection, schedule: Q04DX003 (ip), vehicle: acetone 95 % of control

CCOC(=O)C1C(=O)CC(=O)C(C(=O)OCC)C1c1cc(OC)c(OC)c(OC)c1 (centres undefined)
inactive: dose: 100.0 mg/kg/injection, schedule: Q04DX002 (ip), vehicle: Klucel (hydroxypropylcellulose) (HPC) 91 % of control | dose: 200.0 mg/kg/injection, schedule: Q04DX002 (ip), vehicle: Klucel (hydroxypropylcellulose) (HPC) 91 % of control | dose: 400.0 mg/kg/injection, schedule: Q04DX002 (ip), vehicle: Klucel (hydroxypropylcellulose) (HPC) 94 % of control
